Like-named read-outs stand apart in the source and are kept apart here.
Tests used:
[1] = tested on: human nasal tissue mast cells activated with LPS; assay: Ex vivo LPS-induced tryptase release (degranulation) of human nasal tissue mast cells; format: cell-based; conditions: for Tryptase: with LPS; for inhibition at 3 µM / inhibition at 10 µM / inhibition at 30 µM / inhibition at 60 µM / IC50: Homo sapiens, Mast cell; for inhibition at 3 µM / inhibition at 10 µM / inhibition at 30 µM / inhibition at 60 µM: read-out: percentage inhibition of degranulation (tryptase); for IC50: read-out: IC50 ex vivo inhibition of tryptase release; for HillSlope / LogIC50: LPS
Description: (§1) Fresh human nasal mucosa was used (middle nasal turbinate), which was surgically removed as standard procedure during nose correction surgeries (septorhinoplasty with conchotomy). Only tissues from those patients who had not previously received medication in the form of cortisone preparations or antihistamines were used. The removed tissue was cleansed immediately after the surgical removal with Epilife Medium (Thermo Fisher Scientific, No. […]500), referred to as “medium” in terms of ex vivo experiments, a chemically defined, serum-free full medium for epithelial cells and keratinocytes. The tissue was then cut into 12 pieces of equal size, cleansed again in the medium, and the exact fresh weight of the cut tissue pieces was determined for later normalization and then stored overnight in cold medium. The weight of the tissue pieces varied between 10 and 20 mg.
After an one hour of pre-incubation with the respective compositions i), ii) or iii), 4 μg/ml lipopolysaccharide (LPS, Sigma-Aldrich GmbH, L4516) was added to each well—except for one well serving as the negative control—in order to induce tryptase degranulation. Then, 250 μl supernatant were taken from each well at the time points of 15 minutes, 60 minutes (one hour), 120 minutes (two hours), 240 minutes (four hours), 480 minutes (eight hours), and 1200 minutes (20 hours) after stimulation with LPS and the supernatants were directly frozen. Immediately after the removal of 250 μl supernatant, the volume in each well was increased to the original level and the original composition by adding 250 μl of the respective composition i), ii) and iii).
(§2) For the determination of the amount of degranulated tryptase, the frozen supernatants were thawed at 22° C. and then subjected to a tryptase ELISA Kit from Boster Biological Technology Co., Ltd (No. EZ0898, Assay Range: 156-10000 pg/ml, Sensitivity: <15 pg/ml) according to manufacturer's instructions, and the ELISA measurements were performed with the Multiskan Go instrument from Thermo Scientific and the SkanIt Re 4.1 software.
(§3) The statistical analysis was conducted in two steps. In a first step, the raw measurement values were normalized to 10 mg tissue. In a second step, a correction factor was introduced for all time points of supernatant removal to compensate for the 250 μl supernatant taken for analysis at each time and the subsequent re-addition of medium incl. factors. The statistical calculations were performed with Microsoft Excel 2010.
(§4) For the analysis, a non-linear regression (variable slope—4-parametric) was used. The program setting “Dose-Response-Inhibition” was applied for an automatic calculation, readout and display of the IC50 values.

[2] = tested on: human nasal tissue mast cells activated with SCF; assay: Ex vivo SCF-induced tryptase release (degranulation) of human nasal tissue mast cells; format: cell-based; conditions: for Tryptase: with SCF; for inhibition at 1 µM / inhibition at 3 µM / inhibition at 10 µM / inhibition at 30 µM / inhibition at 60 µM / inhibition at 150 µM / inhibition at 300 µM / IC50: Homo sapiens, Mast cell; for inhibition at 1 µM / inhibition at 3 µM / inhibition at 10 µM / inhibition at 30 µM / inhibition at 60 µM / inhibition at 150 µM / inhibition at 300 µM: read-out: percentage inhibition of degranulation (tryptase); for IC50: read-out: IC50 ex vivo inhibition of tryptase degranulation; for HillSlope / LogIC50: SCF
Description: as §1
After an one hour of pre-incubation with the respective compositions i) or ii), 0.4 μg/ml stem cell growth factor (SCF, Peprotech) was added to each well—except for one well serving as the negative control—in order to induce tryptase degranulation. […] Immediately after the removal of 250 μl supernatant, the volume in each well was increased to the original level and the original composition by adding 250 μl of the respective composition i), and ii).
as §2, §3, §4

[3] = summary statement, mast cells of human nasal pieces

Work on CCNC1=Nc2ccc(Cl)cc2C(C)(c2ccccc2)O1 (racemic) [Etifoxine, 6-Chloro-2-N-ethyl-4-methyl-4-phenyl-4H-3,1-benzoxazine-2-amine] yielded a Tryptase ([1]; 3 μM Etifoxine, 15 min) of 1107.7 pg/ml/10 mg tissue, a Tryptase ([1]; 3 μM Etifoxine, 60 min) of 1822.9 pg/ml/10 mg tissue and a Tryptase ([1]; 3 μM Etifoxine, 120 min) of 2116.7 pg/ml/10 mg tissue. The Tryptase ([1]; 3 μM Etifoxine, 240 min) was 3032.7 pg/ml/10 mg tissue, the Tryptase ([1]; 3 μM Etifoxine, 480 min) was 3622.0 pg/ml/10 mg tissue and the Tryptase ([1]; 3 μM Etifoxine, 1200 min) was 5419.5 pg/ml/10 mg tissue. For the same compound, the Tryptase ([1]; 10 μM Etifoxine, 15 min) was 763.6 pg/ml/10 mg tissue, the Tryptase ([1]; 10 μM Etifoxine, 60 min) was 1252.6 pg/ml/10 mg tissue and the Tryptase ([1]; 10 μM Etifoxine, 120 min) was 2035.3 pg/ml/10 mg tissue. For the same compound, the Tryptase ([1]; 10 μM Etifoxine, 240 min) was 2901.8 pg/ml/10 mg tissue, the Tryptase ([1]; 10 μM Etifoxine, 480 min) was 3275.1 pg/ml/10 mg tissue and the Tryptase ([1]; 10 μM Etifoxine, 1200 min) was 4687.0 pg/ml/10 mg tissue. For the same compound, the Tryptase ([1]; 30 μM Etifoxine, 15 min) was 676.0 pg/ml/10 mg tissue, the Tryptase ([1]; 30 μM Etifoxine, 60 min) was 857.5 pg/ml/10 mg tissue and the Tryptase ([1]; 30 μM Etifoxine, 120 min) was 1619.4 pg/ml/10 mg tissue. It also gave a Tryptase ([1]; 30 μM Etifoxine, 240 min) of 2276.4 pg/ml/10 mg tissue, a Tryptase ([1]; 30 μM Etifoxine, 480 min) of 2678.2 pg/ml/10 mg tissue and a Tryptase ([1]; 30 μM Etifoxine, 1200 min) of 3675.9 pg/ml/10 mg tissue. The Tryptase ([1]; 60 μM Etifoxine, 15 min) was 881.1 pg/ml/10 mg tissue, the Tryptase ([1]; 60 μM Etifoxine, 60 min) was 1054.5 pg/ml/10 mg tissue and the Tryptase ([1]; 60 μM Etifoxine, 120 min) was 1592.2 pg/ml/10 mg tissue. It also gave a Tryptase ([1]; 60 μM Etifoxine, 240 min) of 2241.2 pg/ml/10 mg tissue, a Tryptase ([1]; 60 μM Etifoxine, 480 min) of 2720.1 pg/ml/10 mg tissue and a Tryptase ([1]; 60 μM Etifoxine, 1200 min) of 3472.1 pg/ml/10 mg tissue. For the same compound, the inhibition at 3 µM ([1]; 2 h) was 79%, the inhibition at 10 µM ([1]; 2 h) was 83% and the inhibition at 30 µM ([1]; 2 h) was 105%. It also gave an inhibition at 60 µM ([1]; 2 h) of 106%, an inhibition at 3 µM ([1]; 4 h) of 104% and an inhibition at 10 µM ([1]; 4 h) of 107%. For the same compound, the inhibition at 30 µM ([1]; 4 h) was 123%, the inhibition at 60 µM ([1]; 4 h) was 124% and the IC50 ([1]; 2 hours (120 minutes) after LPS addition) was 14.7 µM. For the same compound, the IC50 ([1]; 4 hours (240 minutes) after LPS addition) was 15.1 µM, the HillSlope ([1]; Tryptase 2 h) was −4.183 and the LogIC50 ([1]; Tryptase 2 h) was 1.168. The HillSlope ([1]; Tryptase 4 h) was −4.101, the LogIC50 ([1]; Tryptase 4 h) was 1.179 and the “inhibition of LPS-triggered tryptase degranulation achieved (complete)” value [1, 3] was 100%. For the same compound, the Tryptase ([2]; 1 μM Etifoxine, 120 min) was 12.1 pg/ml/10 mg tissue, the Tryptase ([2]; 1 μM Etifoxine, 240 min) was 1113.7 pg/ml/10 mg tissue and the Tryptase ([2]; 1 μM Etifoxine, 480 min) was 1791.7 pg/ml/10 mg tissue. It also gave a Tryptase ([2]; 1 μM Etifoxine, 1440 min) of 5547.4 pg/ml/10 mg tissue, a Tryptase ([2]; 3 μM Etifoxine, 120 min) of 38.7 pg/ml/10 mg tissue and a Tryptase ([2]; 3 μM Etifoxine, 240 min) of 1030.3 pg/ml/10 mg tissue. The Tryptase ([2]; 3 μM Etifoxine, 480 min) was 1789.0 pg/ml/10 mg tissue, the Tryptase ([2]; 3 μM Etifoxine, 1440 min) was 5512.9 pg/ml/10 mg tissue and the Tryptase ([2]; 10 μM Etifoxine, 120 min) was 71.9 pg/ml/10 mg tissue. The Tryptase ([2]; 10 μM Etifoxine, 240 min) was 594.5 pg/ml/10 mg tissue, the Tryptase ([2]; 10 μM Etifoxine, 480 min) was 1284.9 pg/ml/10 mg tissue and the Tryptase ([2]; 10 μM Etifoxine, 1440 min) was 3185.9 pg/ml/10 mg tissue. The Tryptase ([2]; 30 μM Etifoxine, 120 min) was 109.4 pg/ml/10 mg tissue, the Tryptase ([2]; 30 μM Etifoxine, 240 min) was 449.9 pg/ml/10 mg tissue and the Tryptase ([2]; 30 μM Etifoxine, 480 min) was 979.7 pg/ml/10 mg tissue. For the same compound, the Tryptase ([2]; 30 μM Etifoxine, 1440 min) was 2400.2 pg/ml/10 mg tissue, the Tryptase ([2]; 60 μM Etifoxine) was 1218.2 pg/ml/10 mg tissue and the Tryptase ([2]; 60 μM Etifoxine, 120 min) was 152.7 pg/ml/10 mg tissue. The Tryptase ([2]; 60 μM Etifoxine, 240 min) was 345.9 pg/ml/10 mg tissue, the Tryptase ([2]; 60 μM Etifoxine, 480 min) was 689.7 pg/ml/10 mg tissue and the Tryptase ([2]; 150 μM Etifoxine) was 1040.1 pg/ml/10 mg tissue. For the same compound, the Tryptase ([2]; 150 μM Etifoxine, 120 min) was 163.3 pg/ml/10 mg tissue, the Tryptase ([2]; 150 μM Etifoxine, 240 min) was 576.8 pg/ml/10 mg tissue and the Tryptase ([2]; 150 μM Etifoxine, 480 min) was 1042.4 pg/ml/10 mg tissue. It also gave a Tryptase ([2]; 300 μM Etifoxine, 120 min) of 71.9 pg/ml/10 mg tissue, a Tryptase ([2]; 300 μM Etifoxine, 240 min) of 459.3 pg/ml/10 mg tissue and a Tryptase ([2]; 300 μM Etifoxine, 480 min) of 991.8 pg/ml/10 mg tissue. The Tryptase ([2]; 300 μM Etifoxine, 1440 min) was 559.4 pg/ml/10 mg tissue, the inhibition at 1 µM ([2]; 4 h) was 0% and the inhibition at 3 µM ([2]; 4 h) was 0%. It also gave an inhibition at 10 µM ([2]; 4 h) of 15%, an inhibition at 30 µM ([2]; 4 h) of 56% and an inhibition at 60 µM ([2]; 4 h) of 85%. For the same compound, the inhibition at 150 µM ([2]; 4 h) was 21%, the inhibition at 300 µM ([2]; 4 h) was 53% and the inhibition at 1 µM ([2]; 8 h) was 0%. It also gave an inhibition at 3 µM ([2]; 8 h) of 0%, an inhibition at 10 µM ([2]; 8 h) of 28% and an inhibition at 30 µM ([2]; 8 h) of 90%. The inhibition at 60 µM ([2]; 8 h) was 148%, the inhibition at 150 µM ([2]; 8 h) was 77% and the inhibition at 300 µM ([2]; 8 h) was 87%. For the same compound, the IC50 ([2]; 4 hours after SCF addition) was 6.12 µM, the IC50 ([2]; 8 hours after SCF addition) was 9.07 µM and the HillSlope ([2]; Tryptase 4 h) was −2.791. For the same compound, the LogIC50 ([2]; Tryptase 4 h) was 0.7865, the HillSlope ([2]; Tryptase 8 h) was −3.492 and the LogIC50 ([2]; Tryptase 8 h) was 0.9578. The “inhibition of SCF-triggered tryptase release (degranulation) achieved (complete)” value [2, 3] was 100%.
